Measured values reported in patent US10899733B2, “Inhibitors of PARPs that catalyze mono-ADP-ribosylation” (OREGON HEALTH & SCIENCE UNIVERSITY, priority 2017, dated 2021).
Where two headings read alike, the source gives them in different places.

What was measured:
[1] = target: T1, PARP10 (Homo sapiens, UniProt Q53GL7); assay: PARP10-dependent ADP-ribosylation in HEK293T cells expressing GFP-PARP10, Western blot with ADP-ribose binding reagent; type: cell-based; details: for EC50: GFP-PARP10, 22 at 1-100 μM for 3 h
T1 construct: Human embryonic kidney (HEK) 293T cells expressing full-length PARP10; expressed in transfected cells; host or cells: HEK293T
T1 sequence (Q53GL7 1-1025): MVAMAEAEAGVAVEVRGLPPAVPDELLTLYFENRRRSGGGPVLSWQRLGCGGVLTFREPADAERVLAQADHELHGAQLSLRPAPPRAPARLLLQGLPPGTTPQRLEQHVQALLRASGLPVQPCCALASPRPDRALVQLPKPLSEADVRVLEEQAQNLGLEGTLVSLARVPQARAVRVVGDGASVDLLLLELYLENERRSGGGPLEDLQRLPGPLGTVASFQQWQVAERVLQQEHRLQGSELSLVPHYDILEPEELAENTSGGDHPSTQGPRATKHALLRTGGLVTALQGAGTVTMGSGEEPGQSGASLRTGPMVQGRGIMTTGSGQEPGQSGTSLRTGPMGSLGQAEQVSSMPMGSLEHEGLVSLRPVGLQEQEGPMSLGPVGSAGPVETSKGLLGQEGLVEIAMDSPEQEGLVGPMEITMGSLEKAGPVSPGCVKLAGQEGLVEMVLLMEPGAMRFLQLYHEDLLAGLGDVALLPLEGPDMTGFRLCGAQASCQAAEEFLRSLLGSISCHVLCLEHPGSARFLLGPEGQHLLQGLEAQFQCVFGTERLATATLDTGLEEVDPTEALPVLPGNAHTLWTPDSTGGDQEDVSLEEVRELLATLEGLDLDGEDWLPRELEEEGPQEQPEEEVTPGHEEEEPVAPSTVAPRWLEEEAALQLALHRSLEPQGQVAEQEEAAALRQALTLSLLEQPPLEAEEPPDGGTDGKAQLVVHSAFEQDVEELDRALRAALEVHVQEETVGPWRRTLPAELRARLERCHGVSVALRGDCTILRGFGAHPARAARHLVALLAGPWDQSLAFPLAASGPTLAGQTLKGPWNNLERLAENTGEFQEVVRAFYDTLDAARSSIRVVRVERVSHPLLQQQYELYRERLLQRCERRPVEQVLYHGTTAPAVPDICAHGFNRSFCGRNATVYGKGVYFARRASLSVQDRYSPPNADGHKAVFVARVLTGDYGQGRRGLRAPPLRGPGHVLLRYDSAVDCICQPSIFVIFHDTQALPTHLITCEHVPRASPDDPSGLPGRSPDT
Method: We next determined if 22 could inhibit PARP10-dependent ADP-ribosylation in cells. […] Med. Chem. Lett. 25, pp. 4770-4773} Human embryonic kidney (HEK) 293T cells expressing full-length PARP10 were treated with increasing concentrations of 22 (1-100 μM). […] The EC50 value varies depending on the species quantified.
HEK293T cells were transfected with GFP-PARP10 and incubated with increasing concentrations of 22 (1-100 μM) for 3 h. Lysates were prepared and auto-ADP-ribosylation of PARP10 and its high molecular weight (HMW) targets were analyzed with an ADP-ribose binding reagent (α-APDr) (FIG. 2B) Quantification of data shown in FIG. 2(a).

[2] = target: T2, PARP11 (Homo sapiens, UniProt Q9NR21); assay: Inhibition of PARP11-mediated ADP-ribosylation of SRPK2 using NAD+ (100 μM); type: biochemical; details: ADP-ribosylation of SRPK2, NAD+ 100 μM
T2 sequence (Q9NR21 1-338): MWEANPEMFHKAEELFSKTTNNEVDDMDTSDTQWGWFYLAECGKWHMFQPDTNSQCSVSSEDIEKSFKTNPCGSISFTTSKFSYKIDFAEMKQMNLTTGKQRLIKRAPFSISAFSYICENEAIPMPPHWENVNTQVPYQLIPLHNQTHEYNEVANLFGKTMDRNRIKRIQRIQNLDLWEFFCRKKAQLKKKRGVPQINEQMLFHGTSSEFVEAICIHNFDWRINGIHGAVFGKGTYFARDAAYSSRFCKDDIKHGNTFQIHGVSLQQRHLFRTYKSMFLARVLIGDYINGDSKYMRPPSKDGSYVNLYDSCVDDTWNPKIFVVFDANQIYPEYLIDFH

For `Cc1c(-c2ccnc(C(F)(F)F)c2)ccc2c1CCNC2=O` [Compound 22, 5-methyl-6-(2-(trifluoromethyl)pyridin-4-yl)-3,4-dihydroisoquinolin-1(2H)-one], the “inhibition of auto-ADP-ribosylation of PARP10 and PARP10-labeled targets in cells” value ([1]; 1-100 μM) was “dose-dependent manner”, the EC50 ([1]; read-out: EC50, PARP10 itself (auto-ADP-ribosylation)) was 11 µM and the EC50 ([1]; read-out: EC50, PARP10 targets (HMW species)) was 2.3 µM. For the same compound, the IC50 [2] was 51.7 µM and the “PARP11 pIC50 ± S.E.M.” value [2] was 4.29 ± 0.04.
